{
  "source": "patent EP0069448A1",
  "about": "“Fungicidal amide derivatives” (IMPERIAL CHEMICAL INDUSTRIES PLC, priority 1981, dated 1983)",
  "type_in_all_cases": "in vivo",
  "key": {"[1]": {"tested_on": "CERCOSPORA ARACHIDICOLA (PEANUT)", "assay": "Foliar fungal disease test on plants (spray and root drench)", "conditions": "100 ppm active ingredient spray, root drench approximately 40 ppm a.i./dry soil; applied one or two days before inoculation", "description": "(§1) The compound of Example 1 was tested against a variety of foliar fungal diseases of plants. The technique employed was as follows:- The plants were grown in John Innes Potting Compost (No. 1 or 2) in 4 cm diameter minipots. A layer of fine sand was placed at the bottom of the pots containing the dicotyledonous plants to facilitate uptake of test compound by the roots. The test compound was formulated either by bead milling with aqueous Dispersol T or as a solution of acetone or acetone/ethanol which was diluted to the required concentration immediately before use. For the foliage diseases, suspensions (100 ppm active ingredient) were sprayed on to the […]. Exceptions to this were the tests on Botrytis cinerea, Plasmopara viticola and venturia inaequalis. The sprays were applied to maximum retention and the root drenches to a final concentration equivalent to approximately 40 ppm a.i./dry soil. Tween 20, to give a final concentration of 0.05%, was added when the sprays were applied to cereals. For most of the tests the compound was applied to the soil (roots) and the foliage (by spraying) one or two days before the plant was inoculated with the diseases. An exception was the test on Erysiphe graminis in which the plants were inoculated 24 hours before treatment. After inoculation, the plants were put into an appropriate environment to allow infection to take place and The disease control was recorded by the following grading:- [table]"}, "[2]": {"tested_on": "VENTURIA INAEQUALIS (APPLE)", "assay": "Foliar fungal disease test on plants (spray and root drench)", "conditions": "100 ppm active ingredient; Venturia inaequalis named as an exception to the combined spray and soil application; applied one or two days before inoculation", "description": "as §1"}, "[3]": {"tested_on": "ERYSIPHE GRAMINIS (BARLEY)", "assay": "Foliar fungal disease test on plants (spray and root drench)", "conditions": "100 ppm active ingredient spray, root drench approximately 40 ppm a.i./dry soil; plants inoculated 24 hours before treatment", "description": "as §1"}, "[4]": {"tested_on": "PUCCINIA RECONDITA (WHEAT)", "assay": "Foliar fungal disease test on plants (spray and root drench)", "conditions": "100 ppm active ingredient spray, root drench approximately 40 ppm a.i./dry soil; applied one or two days before inoculation", "description": "as §1"}, "[5]": {"tested_on": "Candida albicans and Trichophyton mentagrophytes var. quinkeanum", "assay": "Oral antifungal test in oestradiol-treated female mice inoculated vaginally and on the back", "conditions": "168 h, oral dosing twice on day 0 and once daily on days 1-4, skin lesions scored and vaginal samples cultured on day 7, read-out: minimum effective dose (MED)", "description": "The following Monday (day 0) they are clipped on the back and then dosed orally with test compounds. They are then inoculated with Candida albicans in the vagina and Trichophyton mentagrophytes var. quinkeanum on the back, and then given a second dose of the same compound. Dosing is repeated once daily on days 1-4. On day 7 skin lesions are scored visually and vaginal samples taken for culture on agar. Groups of 5 mice are used and compounds are dosed initially at a level of 250mg./kg. The dose is then reduced sequentially until a minimum effective dose (MED) is found. The MED for 2,2-bis(4-chlorophenyl)-3-(1,2,4-triazol-1-yl)propionamide in this test was 5mg. per kg."}},
  "data": [
    {"smiles": "NC(=O)C(Cn1cncn1)(c1ccc(Cl)cc1)c1ccc(Cl)cc1", "note": "[Example 1, 2,2-bis(4-chlorophenyl)-3-(1,2,4-triazol-1-yl)propionamide]", "values": [
      {"measurement": "disease control grading, CERCOSPORA ARACHIDICOLA (PEANUT)", "setting": "[1]", "value": 2},
      {"measurement": "disease control grading, VENTURIA INAEQUALIS (APPLE)", "setting": "[2]", "value": 3},
      {"measurement": "disease control grading, ERYSIPHE GRAMINIS (BARLEY)", "setting": "[3]", "value": 4},
      {"measurement": "disease control grading, PUCCINIA RECONDITA (WHEAT)", "setting": "[4]", "value": 1},
      {"measurement": "minimal effective dose", "setting": "[5]", "value": 5, "unit": "mg/kg"}
    ]}
  ]
}
